One series deals with miR-124. Kind of series: Induction of miR-124 expression in PBMC cells (qPCR). The class given is cell-based. The settings on record: Homo sapiens, 72 h, 0.1 μM compound, human PBMCs stimulated with PMA/ionomycin, miR-191 reference gene, read-out: miR-124 expression, Fold change vs DMSO. In a few lines:
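Human PBMCs (3.0*10^6 cells/well) were stimulated with PMA 10 ng/mL plus ionomycin 200 ng/mL for 48 h, then given compound at 0.1 μM final for 72 h. miR-124 was measured by RT-qPCR against miR-191 as reference gene. Expression is relative to DMSO control.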

The nature of series [1]: In vivo pharmacokinetic evaluation in mice. The settings on record: mouse; male ICR mice, po, 10 mg/kg, plasma. Here is the method: The compound was administered orally (p.o.) at a dose of 10 mg/kg. The test formulation was prepared at a final concentration of 0.4 mg/mL in 5% DMSO+45% PEG400+50% aqueous solution or suspension. Male ICR mice (9 per group) were sampled at three discontinuous time points (n=3 mice/time point). Approximately 80 μL of blood was collected via orbital or cardiac puncture at 5 min, 15 min, 30 min, 1 h, 2 h, 4 h, 8 h, and 24 h post-dose. All whole blood samples were collected in EDTA K2-containing tubes. After centrifugation at 4° C. (4000 rpm, 10 min), plasma was collected and stored below −40° C. for subsequent analysis. Compound concentrations in plasma were determined by liquid chromatography-tandem mass spectrometry (LC-MS/MS), and pharmacokinetic parameters were derived from the plasma concentration-time curves.

In a further series the test system is DSS-induced IBD in mice. Kind of series: Preventive and therapeutic effects on DSS-induced inflammatory bowel disease (IBD) in mice. It counts as in vivo. The settings on record: for reduction in total DAI scores compared to the model group / Total Disease Activity Index (DAI) Scores / Colon length / colon length as % of normal control values / total DAI scores: 40 mg/kg p.o. q.d.; for body weight loss percentage / body weight gain percentage: day 10, 40 mg/kg p.o. q.d., female C57BL/6 mice, 2% DSS; for Total Disease Activity Index (DAI) Scores / total DAI scores: final day; for Total Disease Activity Index (DAI) Scores / Colon length: mean ± S.E.M.; for Total Disease Activity Index (DAI) Scores: model group 14.50; for Colon length: last experimental day, normal control 6.44, model group 4.98; for colon length as % of normal control values: model group 77.32%; for total DAI scores: model group 14.5 points. From the text: This study evaluated the preventive and therapeutic effects of the compounds of the present invention on dextran sulfate sodium (DSS)-induced IBD in mice. The experiment utilized female C57BL/6 mice (purchased from Beijing Vital River Laboratory Animal Technology Co., Ltd.) to establish the DSS-induced IBD model.
Female C57BL/6 mice (6-8 weeks old) were purchased from Beijing Vital River Laboratory Animal Technology Co., Ltd. Upon arrival, the mice were housed in individually ventilated cages (IVC) under specific pathogen-free (SPF) conditions, with 2-6 mice per cage. They were provided with ad libitum access to food and water and maintained at a temperature of 20-26° C. (68-79° F.), relative humidity of 40-70%, and a 12-hour light/dark cycle (lights on from 08:00 to 20:00). After a 7-day acclimatization period, experiments were initiated.
Test compounds and ABX464 vehicle: 5% DMSO+10% Solutol HS-15+85% saline, stored at 4° C.
DSS solution: 2% (w/v) DSS in autoclaved drinking water, prepared fresh before use.
The mice were randomly allocated into eight groups according to body weight: normal control group (negative control), model group (DSS group), ABX464 treatment group, test compound groups (administered with Compounds 19, 43, 59, 84, and 89 of the present invention at 40 mg/kg, p.o., q.d.)
Following a 7-day acclimation period, the model group and compound treatment groups were administered 2% DSS aqueous solution ad libitum for 7 days starting from Day 0, followed by 3 days of normal water consumption. All groups received daily oral gavage of their respective vehicles or test compounds for 10 consecutive days beginning on the trial commencement date. During the experimental period, body weight changes in mice were monitored and recorded daily, the Disease Activity Index (DAI) was scored each day with the total score calculated on the final day, and on the last experimental day all animals were humanely euthanized followed by colon collection and length measurement.
The experimental data were expressed as mean±standard error of the mean (mean±S.E.M.). Statistical analysis was performed using GraphPad Prism or SPSS software with appropriate statistical methods. A value of P<0.05 was considered statistically significant.

As usually defined, the AUC(0-t) is the area under the concentration-time curve up to a stated or last time point. Low readings indicate less exposure, high ones more exposure. What is called Cmax is the maximum level reached in the sampled fluid or tissue. A word on the Tmax: it is the time from dosing to the highest level. One may read the half-life as how long it takes for the measured level to halve. High values mean slow decline, low ones rapid decline.

On to `FC(F)(F)Oc1ccc(Nc2ccc3cccc(Cl)c3n2)cc1` [ABX464, reference compound], for which the fold induction at 0.1 µM in the series on miR-124 came out at 13.5. Also, in series [1], the AUC(0-t) came to 420 ng·h/mL, the concentration peaked (Cmax) at 168 ng/mL, the Tmax amounted to 0.5 h and the half-life is 1.08 h. For the same compound, in the series with DSS-induced IBD in mice, the “reduction in total DAI scores compared to the model group” value (“reduction in total DAI scores” below) was 5.72%, the “body weight loss percentage” value was determined as 5.37%, the “Total Disease Activity Index (DAI) Scores” value (“Total Disease Activity Index” for short) is listed as 13.67 and the Colon length is recorded as 6.22 cm.

Take `FC(F)(F)Oc1ccc(Nc2nc3c(Cl)cccc3n3ccnc23)cc1Cl` [Compound 19]: the fold induction at 0.1 µM with miR-124 is 21.2. Moreover, in series [1], the area under the curve AUC(0-t) turned out to be 1640 ng·h/mL, the peak level (Cmax) was 358 ng/mL, the Tmax came out at 4 h and the half-life was 3.36 h. In addition, in the series on DSS-induced IBD in mice, the “reduction in total DAI scores” value stood at 42.55%, the “colon length as % of normal control values” (shortened to “colon length as %”) was 96.27%, the “body weight gain percentage” value was found to be 0.16% and the “Total Disease Activity Index” value was 8.33. Besides, in the series on DSS-induced IBD in mice, the “total DAI scores” value came to 8.33 points and the Colon length amounted to 6.20 cm.

As for `Fc1cc(Nc2nc3c(F)cccc3n3ccnc23)ccc1OC(F)(F)F` [Compound 43], the fold induction at 0.1 µM in the series with miR-124 was 18.9. In series [1], the AUC(0-t) came to 1680 ng·h/mL, the highest level (Cmax) was 348 ng/mL, the Tmax was determined as 2 h and the half-life is 3.87 h. Also, in the series on DSS-induced IBD in mice, the “colon length as %” value stood at 99.69%, the “body weight loss percentage” value amounted to 2.22%, the “Total Disease Activity Index” value is on record as 10.03 and the “total DAI scores” value was 10.03 points. In the series with DSS-induced IBD in mice, the Colon length worked out at 6.42 cm.

`FC(F)(F)Oc1ccc(Nc2nc3cc(Cl)ccc3n3ccnc23)cc1` [Compound B7, 7-chloro-N-(4-(trifluoromethoxy)phenyl)imidazolo [1,2-a]quinoxalin-4-amine]: the fold induction at 0.1 µM in the series on miR-124 was found to be 32. Further, in series [1], the AUC(0-t) stood at 3240 ng·h/mL, the peak level (Cmax) was 378 ng/mL, the Tmax turned out to be 2 h and the half-life was 3.05 h. The “preventive and therapeutic effects on DSS-induced IBD (body weight, DAI, colon length) relative to ABX464” value in the series on DSS-induced IBD in mice (further experiments, figures not given) is listed as “outperformed the reference drug ABX464”.

Consider `FC(F)(F)c1ccc(NC2=Nc3c(Cl)cc(Cl)cc3N3CCN=C23)cc1` [Compound 89], for which, in the series on miR-124, the fold induction at 0.1 µM came to 24.3. Further, in series [1], the AUC(0-t) came to 1860 ng·h/mL, the peak level (Cmax) was 454 ng/mL, the Tmax was 2 h and the half-life is 3.46 h. In addition, in the series with DSS-induced IBD in mice, the “colon length as %” value is recorded as 99.07%, the “body weight loss percentage” value was found to be 1.85%, the “Total Disease Activity Index” value is recorded as 10.33 and the “total DAI scores” value stood at 10.33 points. The Colon length in the series with DSS-induced IBD in mice is listed as 6.38 cm.

As to `Fc1cc(Nc2nc3c(F)cc(Cl)cc3n3ccnc23)ccc1C(F)(F)F` [Compound 59], in the series on miR-124, the fold induction at 0.1 µM was found to be 20.5. Moreover, in the series with DSS-induced IBD in mice, the “reduction in total DAI scores” value came to 40.90%, the “colon length as %” value is given as 100%, the “body weight gain percentage” value is given as 2.12% and the “Total Disease Activity Index” value came to 8.57. In addition, in the series on DSS-induced IBD in mice, the “total DAI scores” value is reported as 8.57 points and the Colon length is recorded as 6.48 cm.
